Source: PubChem BioAssay AID192 (DTP/NCI, 2004)
Where “and” joins values, the source holds several entries; their conditions need not be identical. Equal entries are not always repeated. Toxic doses and inconclusive results are not listed. The calls were made as follows: active = survival T/C of 150% or more; inactive = T/C below 125% in these data.

System: BDF1 mice, B16 melanoma ip, median survival T/C
Assay: NCI In Vivo Anticancer Drug Screen. Data for tumor model B16 Melanoma (intraperitoneal) in B6D2F1 (BDF1) mice
Settings: endpoint: median survival time, higher = longer survival
Procedure, shortened: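 Vehicle-treated animals serve as the reference (C); treated animals (T) are scored for survival or tumor size after tumor transplantation.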

[1] = dose: 100.0 mg/kg/injection, schedule: Q01DX009 (ip), vehicle: saline with Tween-80
[2] = dose: 200.0 mg/kg/injection, schedule: Q01DX009 (ip), vehicle: saline with Tween-80
[3] = dose: 400.0 mg/kg/injection, schedule: Q01DX009 (ip), vehicle: saline with Tween-80
[4] = dose: 1.0 mg/kg/injection, schedule: Q01DX009 (ip), vehicle: saline with Tween-80
[5] = dose: 3.12 mg/kg/injection, schedule: Q01DX009 (ip), vehicle: saline with Tween-80
[6] = dose: 6.25 mg/kg/injection, schedule: Q01DX009 (ip), vehicle: saline with Tween-80
[7] = dose: 12.5 mg/kg/injection, schedule: Q01DX009 (ip), vehicle: saline with Tween-80
[8] = dose: 25.0 mg/kg/injection, schedule: Q01DX009 (ip), vehicle: saline with Tween-80
[9] = dose: 50.0 mg/kg/injection, schedule: Q01DX009 (ip), vehicle: saline with Tween-80
[10] = dose: 100.0 mg/kg/injection, schedule: Q01DX009 (ip), vehicle: Klucel (hydroxypropylcellulose) (HPC)
[11] = dose: 100.0 mg/kg/injection, schedule: Q04DX003 (ip), vehicle: Klucel (hydroxypropylcellulose) (HPC)
[12] = dose: 200.0 mg/kg/injection, schedule: Q01DX009 (ip), vehicle: Klucel (hydroxypropylcellulose) (HPC)
[13] = dose: 200.0 mg/kg/injection, schedule: Q04DX003 (ip), vehicle: Klucel (hydroxypropylcellulose) (HPC)
[14] = dose: 400.0 mg/kg/injection, schedule: Q01DX009 (ip), vehicle: Klucel (hydroxypropylcellulose) (HPC)
[15] = dose: 400.0 mg/kg/injection, schedule: Q04DX003 (ip), vehicle: Klucel (hydroxypropylcellulose) (HPC)
[16] = dose: 25.0 mg/kg/injection, schedule: Q01DX009 (ip), vehicle: Klucel (hydroxypropylcellulose) (HPC)
[17] = dose: 50.0 mg/kg/injection, schedule: Q01DX009 (ip), vehicle: Klucel (hydroxypropylcellulose) (HPC)

Measured: T/C

CCOC(=O)NC1=C(N2CC2)C(=O)C(NC(=O)OCC)=C(N2CC2)C1=O
active: dose: 3.0 mg/kg/injection, schedule: Q01DX009 (ip), vehicle: saline with Tween-80 162 % of control | dose: 3.0 mg/kg/injection, schedule: Q01DX009 (ip), vehicle: saline 160 % of control | dose: 5.0 mg/kg/injection, schedule: Q01DX005 (ip), vehicle: saline with Tween-80 194 % of control
inactive: dose: 0.13 mg/kg/injection, schedule: Q03HX016 (ip), vehicle: water 96 % of control | dose: 0.25 mg/kg/injection, schedule: Q01DX009 (ip), vehicle: saline 100 % of control | dose: 0.25 mg/kg/injection, schedule: Q03HX016 (ip), vehicle: water 93 % of control | dose: 0.5 mg/kg/injection, schedule: Q01DX009 (ip), vehicle: saline 110 % of control | dose: 0.75 mg/kg/injection, schedule: Q01DX009 (ip), vehicle: saline 120 % of control | dose: 1.0 mg/kg/injection, schedule: Q01DX001 (oral), vehicle: water 96 % of control | dose: 1.0 mg/kg/injection, schedule: Q03HX024 (ip), vehicle: water 91 % of control | dose: 16.0 mg/kg/injection, schedule: Q01DX009 (oral), vehicle: water 86 % of control

O=[N+]([O-])c1cccc(S(=O)(=O)Nc2ccccc2Cl)c1
inactive: [1] 90 % of control | [2] 95 % of control | [3] 95 % of control

NC(N)=Nc1cc2ccccc2c2ccccc12
inactive: dose: 5.0 mg/kg/injection, schedule: Q01DX009 (ip), vehicle: saline 93 % of control | dose: 10.0 mg/kg/injection, schedule: Q01DX009 (ip), vehicle: saline 111 % of control | dose: 20.0 mg/kg/injection, schedule: Q01DX009 (ip), vehicle: saline 120 % of control

CNC(=O)Oc1ccc2ccccc2c1
inactive: [1] 100 % of control | [2] 104 % of control | [3] 93 % of control

C=CC12COC(=O)C(=C)C1C1OC(=O)C(=C)C1C(O)C2 (stereo unspecified)
inactive: dose: 0.93 mg/kg/injection, schedule: Q01DX009 (ip), vehicle: Klucel (hydroxypropylcellulose) (HPC) 95 % of control | dose: 1.87 mg/kg/injection, schedule: Q01DX009 (ip), vehicle: Klucel (hydroxypropylcellulose) (HPC) 104 % of control | dose: 3.75 mg/kg/injection, schedule: Q01DX009 (ip), vehicle: Klucel (hydroxypropylcellulose) (HPC) 101 % of control | dose: 7.5 mg/kg/injection, schedule: Q01DX009 (ip), vehicle: Klucel (hydroxypropylcellulose) (HPC) 98 % of control

CC(=O)O[C@@H]1[C@@H](O)C2=C3[C@]4(C)[C@@H]1C(C)(C)C(=O)C[C@@H]4[C@]3(O)[C@H](OC(C)=O)[C@@]1(C[C@@H]1C)C2=O
inactive: [4] 115 % of control | dose: 2.0 mg/kg/injection, schedule: Q01DX009 (ip), vehicle: saline with Tween-80 109 % of control | [5] 97 % of control and 101 % of control | dose: 4.0 mg/kg/injection, schedule: Q01DX009 (ip), vehicle: saline with Tween-80 102 % of control | [6] 104 % of control | dose: 8.0 mg/kg/injection, schedule: Q01DX009 (ip), vehicle: saline with Tween-80 114 % of control | [7] 119 % of control | [8] 104 % of control | [9] 101 % of control

Cc1cc(C)cc(-n2nnc3ccccc3c2=O)c1
inactive: [10] 108 % of control | [11] 95 % of control | [12] 100 % of control | [13] 91 % of control | [14] 86 % of control | [15] 93 % of control

CCCN(C)/N=N/c1nc[nH]c1C(N)=O
inactive: [9] 112 % of control

CCCCNc1ccc(C(=O)O)cc1
inactive: dose: 100.0 mg/kg/injection, schedule: Q04DX003 (ip), vehicle: gum acacia 97 % of control | dose: 200.0 mg/kg/injection, schedule: Q04DX003 (ip), vehicle: gum acacia 97 % of control | dose: 400.0 mg/kg/injection, schedule: Q04DX003 (ip), vehicle: gum acacia 86 % of control

CCCCOc1ccc(NC(N)=Nc2ccc(Cl)cc2)cc1
inactive: [5] 95 % of control | [6] 88 % of control | [7] 90 % of control | [8] 86 % of control

O=C(CN1CCCCC1)Nc1cccc(C(F)(F)F)c1
inactive: [10] 87 % of control | [12] 89 % of control

C=C(C)[C@@H]1CC[C@@H]2C(=CC[C@]3(C)C([C@H](C)CC/C=C(/C)C(=O)O)CC[C@@]23C)[C@@]1(C)CCC(=O)O (stereo partly specified)
inactive: dose: 22.5 mg/kg/injection, schedule: Q01DX009 (ip), vehicle: saline + alcohol 98 % of control | dose: 45.0 mg/kg/injection, schedule: Q01DX009 (ip), vehicle: saline + alcohol 98 % of control

Cc1ccc(C(=O)/C(=C/c2ccccc2)c2ccccc2)cc1
inactive: [11] 113 % of control | [13] 113 % of control | [15] 104 % of control

Cc1ccc([N+](=O)[O-])cc1NC(=O)COc1ccc(Cl)cc1Cl
inactive: dose: 75.0 mg/kg/injection, schedule: Q01DX009 (ip), vehicle: Klucel (hydroxypropylcellulose) (HPC) 90 % of control | dose: 150.0 mg/kg/injection, schedule: Q01DX009 (ip), vehicle: Klucel (hydroxypropylcellulose) (HPC) 88 % of control | dose: 300.0 mg/kg/injection, schedule: Q01DX009 (ip), vehicle: Klucel (hydroxypropylcellulose) (HPC) 86 % of control

O=C1OC(=O)C2C3C=CC(C3=C(c3ccccc3)c3ccccc3)C12 (stereo unspecified)
inactive: dose: 0.78 mg/kg/injection, schedule: Q04DX009 (ip), vehicle: Klucel (hydroxypropylcellulose) (HPC) 115 % of control | dose: 1.56 mg/kg/injection, schedule: Q04DX009 (ip), vehicle: Klucel (hydroxypropylcellulose) (HPC) 121 % of control | dose: 3.13 mg/kg/injection, schedule: Q04DX009 (ip), vehicle: Klucel (hydroxypropylcellulose) (HPC) 106 % of control

CCOc1ccc2nc(Cl)sc2c1
inactive: [11] 105 % of control

O=[N+]([O-])c1ccc(N=Nc2c(Cl)cc(O)cc2Cl)cc1
inactive: [8] 101 % of control | [9] 90 % of control | [1] 88 % of control | [2] 90 % of control

S=C(Nc1ccccn1)Nc1ccccn1
inactive: [16] 97 % of control | [17] 104 % of control | [10] 111 % of control

CN(C)c1ccc(C=Nc2ccc3c(c2)Cc2ccccc2-3)cc1
inactive: [10] 106 % of control | [12] 93 % of control | [14] 90 % of control

CC1=CC(=O)N(NC(N)=O)C1=O
inactive: dose: 12.5 mg/kg/injection, schedule: Q01DX009 (ip), vehicle: saline 107 % of control | dose: 25.0 mg/kg/injection, schedule: Q01DX009 (ip), vehicle: saline 96 % of control | dose: 50.0 mg/kg/injection, schedule: Q01DX009 (ip), vehicle: saline 87 % of control

CCC(CC)OCCN1CCN(CCCN2c3ccccc3Sc3ccc(C(F)(F)F)cc32)CC1
inactive: dose: 0.5 mg/kg/injection, schedule: Q01DX009 (ip), vehicle: saline with Tween-80 109 % of control | [4] 103 % of control

CC1CCC[N-]C1.CC1CCC[N-]C1.CC1CCC[N-]C1.CC1CCC[N-]C1.[Cl][Rh][Cl] (stereo unspecified)
inactive: dose: 3.0 mg/kg/injection, schedule: Q01DX009 (ip), vehicle: Klucel (hydroxypropylcellulose) (HPC) 111 % of control | dose: 6.0 mg/kg/injection, schedule: Q01DX009 (ip), vehicle: Klucel (hydroxypropylcellulose) (HPC) 110 % of control | dose: 12.0 mg/kg/injection, schedule: Q01DX009 (ip), vehicle: Klucel (hydroxypropylcellulose) (HPC) 115 % of control

COC(=O)N1C=Cc2ccccc2C1C#N (stereo unspecified)
inactive: [9] 95 % of control | [1] 87 % of control

Cc1cc(NCCCCCCCNc2cc(C)nc3cc(N)ccc23)c2ccc(N)cc2n1
inactive: dose: 0.78 mg/kg/injection, schedule: Q01DX009 (ip), vehicle: saline with Tween-80 99 % of control | dose: 1.56 mg/kg/injection, schedule: Q01DX009 (ip), vehicle: saline with Tween-80 100 % of control | [5] 113 % of control | [6] 103 % of control | [7] 100 % of control

CN(C)CCOc1ccccn1
inactive: [1] 94 % of control | [2] 97 % of control

O=C(O)c1ccc2c3c(ccc(C(=O)O)c13)CC2
inactive: [16] 92 % of control | [17] 91 % of control

O=C1NC(c2ccccc2Cl)Nc2ccccc21 (stereo unspecified)
inactive: [17] 103 % of control | [10] 98 % of control | [12] 98 % of control | [14] 108 % of control

CCC(C)C(CO)c1ccccc1 (stereo unspecified)
inactive: [8] 102 % of control | [9] 99 % of control
